Laboratory results as given in patent US20250359576A1, “THEANINE-CONTAINING COMPOSITION” (TAIYO KAGAKU Co., Ltd., priority 2024, published 2025).

Key:
panelists [1] = assay: Test Example 4: three-point discrimination sensory evaluation of organic nitrogen compound alone without theanine; format: in vivo; settings: compound alone in deionized water without theanine; 5 ppm test solution; eight panelists; binomial test, p<0.10
Method: Organic nitrogen compound B was added to deionized water (i.e. not containing theanine) to prepare solutions containing 0 (control), 5, 50, and 100 ppm of organic nitrogen compound B.
In other words, […] of organic nitrogen compound B was dissolved in 1000 mL of deionized water (control) to make a 100 ppm solution. 150 mL of deionized water was added to 150 mL of the 100 ppm organic nitrogen compound B solution to make a 50 ppm organic nitrogen compound B solution.
20 mL of the 50 ppm organic nitrogen compound B solution was mixed with 180 mL of deionized water to make a 5 ppm organic nitrogen compound B solution.
A three-point discrimination sensory evaluation was conducted by eight panelists. Bitterness was used as the evaluation category. […] The panelists were asked to select solution(s) that they felt was (were) bitter. Analysis was performed using a binomial test. In the statistical analysis, a significance level of 10% (p<0.10) was used as the threshold for statistical significance.

panelists [2] = assay: Test Example 3: sensory evaluation of unpleasant taste (off-flavor) at high concentrations, upper limit; format: in vivo; settings: six panelists
Method: Solutions containing theanine (Taiyo Kagaku Co., Ltd.: Suntheanine (registered trademark) U001) were prepared to contain 0 (control), 100, 500, 1000, 5000, and 10000 ppm of organic nitrogen compound A or C.
More specifically, 1996 mL of deionized water was added to 4 g of theanine, to prepare the theanine control solution (2 mg/mL theanine solution). 10000 ppm organic nitrogen compound solutions were prepared by adding […] of theanine control solution to 10 g of each organic nitrogen compound A and C.
150 mL of theanine control solution was added to 150 mL of each of the 10000 ppm organic nitrogen compound solutions to prepare 5000 ppm organic nitrogen compound solutions.
180 mL of theanine control solution was added to 20 mL of each of 10000 ppm organic nitrogen compound solutions to prepare 1000 ppm organic nitrogen compound solutions.
180 mL of theanine control solution was added to 20 mL of each of the 5000 ppm organic nitrogen compound solutions to prepare 500 ppm organic nitrogen compound solutions.
180 mL of theanine control solution was added to 20 mL of each of the 1000 ppm organic nitrogen compound solutions to prepare 100 ppm organic nitrogen compound solutions.
Similar solutions were also prepared for organic nitrogen compound C.
A sensory (taste) evaluation was conducted by six panelists. The evaluation category was unpleasant taste, which was considered to be an off-flavor.

SMILES	bitterness, three-point discrimination vs deionized water (panelists [1])	panelists who noticed an unpleasant taste (panelists [2]; 100-500 ppm in 2 mg/mL theanine solution)	panelists who noticed an unpleasant taste (panelists [2]; 1000-5000 ppm in 2 mg/mL theanine solution)	panelists who noticed an unpleasant taste (panelists [2]; 10000 ppm in 2 mg/mL theanine solution)
CCNC=O [organic nitrogen compound B, ethylformamide]	no significant difference			
CC(N)=O [organic nitrogen compound C, acetamide]		one of six panelists	two of six panelists	all panelists
